Measured values published in patent publication US20250320246A1, “3-AZASTEROID COMPOUNDS FOR THE TREATMENT OF DISEASES RELATED TO MITROCHONDRIAL FUNCTION” (NZP UK LIMITED, priority 2022, published 2025).
pEC50: −log10 of the molar value. Where a name gives a salt, the structure may show the parent alone.

Columns and labels:
[1] = test system: sporadic PD patient fibroblasts; assay: Cellular ATP levels in sporadic PD patient fibroblasts, full ATP assay; assay type: cell-based, human; conditions: 24 h, 3 sporadic PD patient fibroblasts; for Emax at 0.3 µM: max response with highest dose of compound (300 nM), read-out: ATP % of vehicle, top %; for pEC50: 8-point range 0.06 nM-300 nM; for activity at 60 pM: max response with lowest dose of compound (0.06 nM), read-out: ATP % of vehicle, bottom %
Description: (§1) Primary fibroblast cells were cultured continuously in Glucose based medium (high glucose (4500 mg/L) Dulbecco's Modified Eagle's medium (DMEM; Sigma-Aldrich) supplemented with 10% fetal bovine serum (Sigma-Aldrich), 100 IU/mL penicillin, 100 μg/mL streptomycin (Lonza), 1 mM sodium pyruvate (Sigma-Aldrich) and 50 μg/mL uridine (Sigma-Aldrich)). Unless otherwise stated, 24 hours prior to analysis, the Glucose based medium was exchanged for Galactose based medium (glucose-free DMEM (Gibco) with the same supplementation and in addition, 5 mM galactose (Sigma-Aldrich)). All cells were assessed between passage 6-10.
The ATP protocol is generally as described in Mortiboys et al 2008. Briefly, fibroblasts were cultured as and plated into white 384 well plates at a concentration of 5000 cells per well in 50 μl of media volume. The plates are left overnight in an incubator to allow the fibroblasts to adhere to the plate surface. The following morning the Glucose based medium is replaced with 25 μl of Galactose based medium. The plates were then spiked with the compounds using a ECHO 550 liquid handling system. The wells were dosed to provide an 8-point concentration range of 0.06 nM-300 nM of compound. After dosing the wells are topped up with a further 25 μl of Galactose based medium and then left in an incubator for 24 hours. Following this incubation, the medium is removed from the plate and the wells are washed twice with sterile PBS. The wells are filled with 25 μl of Sterile PBS followed by 12.5 μl of Lysis solution from the ATPlite™ Luminescence ATP detection assay system (Perkin Elmer), including 16 cell free wells to use as blank controls. The plate is then placed on a rotary shaker for 5 mins at 700 rpm. Following the shaking 12.5 μl of ATP substrate solution (Perkin Elmer) is added to each well and a further 5 min of shaking. The plate is then placed in darkness for 10 minutes prior to reading. Using a PHERAStar® plate reader, luminescence intensity is recorded. Following the ATP assay the plates are immediately assayed for DNA content in a CyQUANT® assay.
Immediately following The ATP assay DNA content is assessed with the CyQUANT® NF Cell Proliferation Assay Kit (ThermoFisher). CyQUANT® buffer is prepared immediately before the assay and is comprised of 1 μl CyQUANT® dye per ml×1 HBSS solution. 12.5 μl of CyQUANT® buffer is added to each well. Plate left in incubator for 1 hour then read on a PHERAStar© Plate reader with excitation at 497 nm and emission at 520 nm.
ATP Quantification for each well is determined using the following formula: […]
After the assays had been repeated in triplicate per line and compound the data was then inputted into Graph pad Prism 7 software suite where a dose response curve is generated using the default “[Agonist] vs response(three parameters)” equation.
From this EC50 values, lowest response and maximal response were taken and used to calculate the Geometric mean between the 5 different lines assessed.

[2] = test system: sporadic PD patient fibroblasts; assay: Mitochondrial membrane potential (MMP, TMRM) in sporadic PD patient fibroblasts; assay type: cell-based, human; conditions: 24 h, 3 sporadic PD patient fibroblasts; for pEC50: 8-point range 0.06 nM-300 nM; for Emax: max response with highest dose of compound (300 nM), read-out: MMP % of vehicle, top %; for activity at 60 pM: max response with lowest dose of compound (0.06 nM), read-out: MMP % of vehicle, bottom %
Description: as §1
Fibroblasts were cultured and plated into a greiner black 384 μClear® plate at a concentration of 1000 cells per well in 50 μl of media volume. The plates are left overnight in an incubator to allow the fibroblasts to adhere to the plate surface. The following morning the Glucose based medium is replaced with 25 μl of Galactose based medium. The plates were then dosed with the compounds using an ECHO® 550 liquid handling system. The wells were dosed to provide an 8-point concentration range of 0.06 nM-300 nM of compound. After dosing the wells are topped up with a further 25 μl of Galactose based medium and then left in an incubator for 24 hours. After 24 hours, the medium is removed from the wells and replaced with 25 μl phenol free Minimal essential medium supplemented with 10% FBS, 1% Penicillin-streptomycin, 1% sodium pyruvate, 0.1% uridine, 1% non-essential amino acids and 1% MEM vitamins with 80 nM TMRM (Sigma) and 10 μM Hoechst Stain (Sigma). The plate is returned to the incubator for another hour after which the stain medium is removed and replaced with 25 μl Phenol free MEM. The plate is then imaged using an IN Cell high content microscope (GE Healthcare) with fields of view per well in 2 channels, Cy3 excitation 542 nm, emission 604-64 nm; and the DAPI excitation 350 nm, emission 450-55 nm at 37° C. with CO2. After imaging the plate is disposed of and the images are Data mined using the INCell developer Toolkit (GE Healthcare).
After the assays had been repeated in triplicate per line and compound the data was then inputted into Graph pad Prism 7 software suite where a dose response curve is generated using the default “[Agonist] vs response(three parameters)” equation. […]

Row | Compound | Emax at 0.3 µM ([1]; Homo sapiens, Fibroblast) [%] | pEC50 ([2]; Homo sapiens, Fibroblast) | Emax ([2]; Homo sapiens, Fibroblast) [%] | activity at 60 pM ([2]; Homo sapiens, Fibroblast) [%] | pEC50 ([1]; Homo sapiens, Fibroblast) | activity at 60 pM ([1]; Homo sapiens, Fibroblast) [%] | pEC50 ([1]; hydrochloride) | pEC50 ([2]; hydrochloride)
1 | C[C@H](CCCC(=O)O)[C@H]1CC[C@H]2[C@@H]3[C@@H](O)C[C@@H]4CN(C(=O)[C@@H](N)Cc5c[nH]c6ccccc56)CC[C@]4(C)[C@H]3CC[C@]12C [Compound 44b, N-[(2S)-2-Amino-3-(1H-indol-3-yl)propanoyl]-3-aza-7β-hydroxy-25-homo-5β-cholan-25-oic acid hydrotrifluoroacetate] | 98.4 | 9.96 | 98.8 | 77.8 | – | – | – | –
2 | CC[C@H](C)[C@H](N)C(=O)N1CC[C@@]2(C)[C@H](C[C@H](O)[C@@H]3[C@@H]2CC[C@]2(C)[C@@H]([C@H](C)CCC(=O)O)CC[C@@H]32)C1 [Compound 42a, N-[(2S,3S)-2-Amino-3-methylpentanoyl]-3-aza-7β-hydroxy-5β-cholan-24-oic acid hydrotrifluoroacetate] | 64.5 | 6.89 | 69.2 | 71.3 | 6.87 | 89.6 | – | –
3 | C[C@H](CCC(=O)O)[C@H]1CC[C@H]2[C@@H]3[C@@H](O)C[C@@H]4CN(C)CC[C@]4(C)[C@H]3CC[C@]12C [Compound 33, N-Methyl-3-aza-7β-hydroxy-5β-cholan-24-oic acid hydrochloride] | – | – | – | 82.3 | – | 88.8 | 9.12 | 7.74
4 | CC[C@H](C)[C@H](N)C(=O)N1CC[C@@]2(C)[C@H](C[C@H](O)[C@@H]3[C@@H]2CC[C@]2(C)[C@@H]([C@H](C)CCCC(=O)O)CC[C@@H]32)C1 [Compound 42b, N-[(2S,3S)-2-Amino-3-methylpentanoyl]-3-aza-7β-hydroxy-25-homo-5β-cholan-25-oic acid hydrotrifluoroacetate] | 98.5 | 8.29 | 96.6 | 92.2 | 7.60 | 91.3 | – | –
5 | CC(C)C[C@H](N)C(=O)N1CC[C@@]2(C)[C@H](C[C@H](O)[C@@H]3[C@@H]2CC[C@]2(C)[C@@H]([C@H](C)CCCC(=O)O)CC[C@@H]32)C1 [Compound 43b, N-[(2S)-2-Amino-4-methylpentanoyl]-3-aza-7β-hydroxy-25-homo-5β-cholan-25-oic acid hydrotrifluoroacetate] | 80.6 | 8.96 | 103 | 86.9 | – | – | – | –
6 | CC(C)C[C@H](N)C(=O)N1CC[C@@]2(C)[C@H](C[C@H](O)[C@@H]3[C@@H]2CC[C@]2(C)[C@@H]([C@H](C)CCC(=O)O)CC[C@@H]32)C1 [Compound 43a, N-[(2S)-2-Amino-4-methylpentanoyl]-3-aza-7β-hydroxy-5β-cholan-24-oic acid hydrotrifluoroacetate] | 86 | 9.70 | 100 | 84.1 | 8.05 | 90.2 | – | –
7 | C[C@H](CCCC(=O)O)[C@H]1CC[C@H]2[C@@H]3[C@@H](O)C[C@@H]4CN(C(=O)CO)CC[C@]4(C)[C@H]3CC[C@]12C [Compound 40b, N-Glycolyl-3-aza-7β-hydroxy-25-homo-5β-cholan-25-oic acid] | 130 | 7.58 | 131 | 95.3 | 7.71 | 101 | – | –
8 | C[C@H](CCC(=O)O)[C@H]1CC[C@H]2[C@@H]3[C@@H](O)C[C@@H]4CN(C(=O)CO)CC[C@]4(C)[C@H]3CC[C@]12C [Compound 40a, N-Glycolyl-3-aza-7β-hydroxy-5β-cholan-24-oic acid] | 103 | 7.19 | 106 | 93.5 | 7.64 | 89.9 | – | –
9 | C[C@H](CCC(=O)O)[C@H]1CC[C@H]2[C@@H]3[C@@H](O)C[C@@H]4CN(C(=O)[C@@H](N)Cc5ccc(O)cc5)CC[C@]4(C)[C@H]3CC[C@]12C [Compound 45a, N-[(2S)-2-Amino-3-(4-hydroxyphenyl)propanoyl]-3-aza-7β-hydroxy-5β-cholan-24-oic acid hydrotrifluoroacetate] | 97.2 | 9.74 | 95.1 | 82.3 | 9.60 | 83.8 | – | –
